Key:
thrombin [1] = molecular target: T1, thrombin (Homo sapiens, UniProt P00734); assay: Thrombin time (TT) plasma clotting test; type: biochemical
T1 construct: The isolated active factor (e.g. thrombin, fXa) and its chromogen or fluorogen peptide-amide substrate are reacted
Description: (§1) Anticoagutant activity (i.e. inhibition of the proteolytic reactions in the process) is measured by anticoagulant tests, e.g. by the thrombin time (TT), activated partial thromboplastin time (APTT) and prothrombin time (PT) tests [E. J. W. Bovie et al; Mayo Clinic Laboratory Manual of Hemostasis; W. B. Sanuders Co., Philadelphia (1971)]. Plasma, inhibited in spontaneous coagulation, e.g. citrate-plasma, is made to coagulate and the required coagulation time is measured. Upon the action of anticoagulants the coagulation time is prolonged proportionally to the inhibition of the reaction(s) in the process. The anticoagulant effect can be characterized by the substance concentration required to double the coagulation time compared to the control (IC50). The effect of anticoagulants on individual coagulant proteases is measured by the amidolytic method [R. Lottenberg et al., Methods in Enzymol. 80, 341 (1981); G. Cleason, Blood Coagulation and Fibrinolysis 5, 411 (1994)]. The isolated active factor (e.g. thrombin, fXa) and its chromogen or fluorogen peptide-amide substrate are reacted in the presence or absence of the inhibitor, resp. The enzyme inhibiting action is characterized by the inhibitory constant (IC50) measured during amidolysis.
In the TT test coagulation is initiated by the thrombin added to the citrate plasma. In the system 22 pmol/mL of thrombin is functioning and in the presence of plasma components its inhibition can be measured on the fibrinogen (one of the natural substrates of thrombin) present In the APTT and PT tests the full coagulation process is made to proceed. Depending on the activator fX is activated by the extrinsic or intrinsic pathway. The generated fXa activates prothrombin to thrombin which, in turn, triggers plasma coagulation. In the test the coagulation time is prolonged if the enzymes or one of them is inhibited by the inhibitor. In the APTT and PT tests at most 40 pmole/ml Xa is generated (this is the full amount of factor X present in both systems) while 150 pmole/ml (APTT) and 350 pmole/ml (PT) are generated from thrombin [B Kaiser et al., Thromb. Res. 65, 157 (1992)].
The in vitro anticoagulant effect of the compounds of general formula (I) was measured by the prothrombin time (PT), activated partial thromboplastin time (APTT) and thrombin time (TT) tests [D. Bagdy et at., Thromb. Haemost. 67, 325 (1992)]. The Xa-factor-inhibiting effect of the compounds was also determined by using the Bz-Ile-Glu-Gly-Arg-pNA chromogen substrate (see method M6).

thrombin [2] = molecular target: T1, thrombin; assay: Inhibition of the amidolytic effect of thrombin on Tos-Gly-Pro-Arg-pNA; type: biochemical; conditions: Tos-Gly-Pro-Arg-pNA substrate
Description: as §1
In the case of D-MePhe-Pro-Arg-H (C1) the concentration doubling the clotting time in the TT, APTT and PT tests amounted to 87, 622 and 2915 nM, resp.

[3] = Table 2, concentration doubling clotting time, read-out: A: IC50, TT

| SMILES | IC50 (thrombin [1]; [3]) [µM] | IC50 (thrombin [1]; Table 1, concentration doubling clotting time, read-out: B: IC50, TT) [µM] | IC50 (thrombin [1]; read-out: concentration doubling the clotting time in the TT test) [µM] | IC50 (thrombin [2]) [µM] |
| --- | --- | --- | --- | --- |
| N=C(N)NCCC[C@@H](C=O)NC(=O)[C@H]1CCCN1C(=O)C(O)C1CCCCCC1.N=C(N)NCCC[C@@H](C=O)NC(=O)[C@H]1CCCN1C(=O)C(O)C1CCCCCC1.O=S(=O)(O)O (stereo partly drawn) [Compound 1, D-2-Cycloheptyl-2-hydroxyacetyl-L-prolyl-L-arginine aldehyde hemisulfate] | 0.11 | – | – | – |
| CN[C@H](Cc1ccccc1)C(=O)N1CCC[C@H]1C(=O)N[C@H](C=O)CCCNC(=N)N [Compound C1, D-MePhe-Pro-Arg-H] | 0.09 | 0.09 | 0.087 | 0.002 |
